Source: patent US20180282310A1, “FORMS AND COMPOSITIONS OF BIARYL INHIBITORS OF BRUTON'S TYROSINE KINASE” (BIOGEN MA INC., priority 2015, published 2018)
In brackets after ≈: the same amount, converted by molar mass.

Assays:
Assay type in all cases: physicochemical
[1] = Physical form stability on storage or drying (XRPD/TGA)
Excerpt: A sample of Compound 2 Type B reference was generated via evaporation of a solution in MeOH/MIBK (v/v, 4:1) at room temperature. […] As the sample was still wet after form transformation, Compound 2 Type B is suspected to be a metastable form at ambient conditions.

[2] = Dynamic vapor sorption (DVS): hygroscopicity and physical stability under humidity
Method: Dynamic Vapor Sorption (DVS) was measured via a SMS (Surface Measurement Systems) DVS Intrinsic.
To evaluate the hygroscopicity and physical stability of Compound 2 Type A under increased humidity, DVS isotherm data was collected at 25° C. with the starting sample pre-dried at 0% RH until a mass change rate lower than 0.002%/min.

[3] = Estimated solubility in solvents at room temperature (stepwise solvent addition); details: for solubility: thermodynamic from solid
Method: Approximately 2 mg solids were added into a 3-mL glass vial. Solvents in Table 39 were then added step wise (100 μL per step) into the vials until the solids were dissolved or a total volume of 2 mL was reached. Results summarized in Table 39 were used to guide the solvent selection in polymorph screening. […] Approximately 2 mg solids were added into a 3-mL glass vial. Solvents in Table 4-6 were then added stepwise (100 μL per step) into the vials until the solids were dissolved or a total volume of 2 mL was reached. Results are summarized in Table 57, which were used to guide the solvent selection in polymorph screening.

Cc1cc(-c2ccnc(Nc3cnn(C)c3)n2)ccc1CNC(=O)N1CC(OC(C)C)C1 [Compound 1 Type B, 3-isopropoxy-N-(2-methyl-4-(2-((1-methyl-1H-pyrazol-4-yl)amino)pyrimidin-4-yl)benzyl)azetidine-1-carboxamide]
Physical stability on vacuum drying ([1]; vacuum dried at 80° C. for 15 hrs): physically unstable
Form change after the DVS test (XRPD) ([2]; 25° C.): no form change
Hygroscopicity (DVS) ([2]; 25° C.): slightly hygroscopic
Behaviour at low humidity (DVS) ([2]; relative humidity (RH) less than 10%, 25° C.): tends to dehydrate

Cc1cc(-c2ccnc(Nc3cnn(C)c3)n2)ccc1CNC(=O)N1CC(OC(C)C)C1.Cl [Compound 2 Type B]
Solid form change during air drying (XRPD) ([1]; air drying at ambient conditions): converted into Compound 2 Type A

Cc1cc(-c2ccnc(Nc3cnn(C)c3)n2)ccc1CNC(=O)N1CC(OC(C)C)C1.Cl [Compound 2 Type A]
solubility ([3]; 20 °C, organic solvent or mixture, 1,4-dioxane, room temperature (RT, 20±3° C.)): < 1000 µg/mL
solubility ([3]; 20 °C, organic solvent or mixture, 2-MeTHF, room temperature (RT, 20±3° C.)): < 1000 µg/mL
solubility ([3]; 20 °C, organic solvent or mixture, ACN, room temperature (RT, 20±3° C.)): < 1000 µg/mL
solubility ([3]; 20 °C, organic solvent or mixture, Acetone, room temperature (RT, 20±3° C.)): < 900 µg/mL
solubility ([3]; 20 °C, organic solvent or mixture, CHCl3, room temperature (RT, 20±3° C.)): < 1100 µg/mL
solubility ([3]; 20 °C, organic solvent or mixture, DCM, room temperature (RT, 20±3° C.)): < 1100 µg/mL
solubility ([3]; 20 °C, organic solvent or mixture, DMAc, room temperature (RT, 20±3° C.)): 22000 to 44000 µg/mL
solubility ([3]; 20 °C, organic solvent or mixture, DMSO, room temperature (RT, 20±3° C.)): 14000 to 21000 µg/mL
solubility ([3]; 20 °C, organic solvent or mixture, EtOAc, room temperature (RT, 20±3° C.)): < 1000 µg/mL
solubility ([3]; 20 °C, organic solvent or mixture, EtOH, room temperature (RT, 20±3° C.)): 4400 to 5500 µg/mL
solubility ([3]; 20 °C, organic solvent or mixture, IPA, room temperature (RT, 20±3° C.)): 1700 to 1800 µg/mL
solubility ([3]; 20 °C, organic solvent or mixture, IPAc, room temperature (RT, 20±3° C.)): < 1200 µg/mL
solubility ([3]; 20 °C, organic solvent or mixture, MIBK, room temperature (RT, 20±3° C.)): < 1000 µg/mL
solubility ([3]; 20 °C, organic solvent or mixture, MTBE, room temperature (RT, 20±3° C.)): < 1000 µg/mL
solubility ([3]; 20 °C, organic solvent or mixture, MeOH, room temperature (RT, 20±3° C.)): > 34000 µg/mL
solubility ([3]; 20 °C, organic solvent or mixture, NMP, room temperature (RT, 20±3° C.)): 14700 to 22000 µg/mL
solubility ([3]; 20 °C, organic solvent or mixture, THF, room temperature (RT, 20±3° C.)): < 900 µg/mL
solubility ([3]; 20 °C, organic solvent or mixture, Toluene, room temperature (RT, 20±3° C.)): < 1100 µg/mL
solubility ([3]; 20 °C, organic solvent or mixture, n-heptane, room temperature (RT, 20±3° C.)): < 900 µg/mL
Behaviour in the solubility test (stability of the salt) ([3]; H2O, room temperature, colour change of solids from orange to faint yellow): N/A: disproportionation occurred along with obvious color change of solids from orange to faint yellow.
Form change after the DVS test (XRPD) ([2]; 25° C.): no form change
Hygroscopicity (DVS) ([2]; 25° C.): slightly hygroscopic
Water uptake (DVS) ([2]; 25° C./80% RH, sample pre-dried at 0% RH): 1.0%

Cc1cc(-c2ccnc(Nc3cnn(C)c3)n2)ccc1CNC(=O)N1CC(OC(C)C)C1 [Compound 1 Type A, 3-isopropoxy-N-(2-methyl-4-(2-((1-methyl-1H-pyrazol-4-yl)amino)pyrimidin-4-yl)benzyl)azetidine-1-carboxamide]
solubility ([3]; organic solvent or mixture, 1,4-Dioxane, room temperature): 3500 to 4200 µg/mL (≈ 8.04 to 9.64 mM)
solubility ([3]; organic solvent or mixture, 2-MeTHF, room temperature): 2200 to 2400 µg/mL (≈ 5.05 to 5.51 mM)
solubility ([3]; organic solvent or mixture, ACN, room temperature): 2300 to 2600 µg/mL (≈ 5.28 to 5.97 mM)
solubility ([3]; organic solvent or mixture, Acetic acid, room temperature): > 54000 µg/mL
solubility ([3]; organic solvent or mixture, Acetone, room temperature): 4600 to 5800 µg/mL (≈ 10.6 to 13.3 mM)
solubility ([3]; organic solvent or mixture, CHCl3, room temperature): 20000 to 40000 µg/mL (≈ 45.9 to 91.8 mM)
solubility ([3]; organic solvent or mixture, DCM, room temperature): 12000 to 24000 µg/mL (≈ 27.6 to 55.1 mM)
solubility ([3]; organic solvent or mixture, DMAc, room temperature): > 54000 µg/mL
solubility ([3]; organic solvent or mixture, DMSO, room temperature): > 38000 µg/mL
solubility ([3]; organic solvent or mixture, EtOAc, room temperature): 1400 to 1500 µg/mL (≈ 3.21 to 3.44 mM)
solubility ([3]; organic solvent or mixture, EtOH, room temperature): 4400 to 5500 µg/mL (≈ 10.1 to 12.6 mM)
solubility ([3]; organic solvent or mixture, IPA, room temperature): 3000 to 3500 µg/mL (≈ 6.89 to 8.04 mM)
solubility ([3]; organic solvent or mixture, IPAc, room temperature): < 1500 µg/mL
solubility ([3]; organic solvent or mixture, MIBK, room temperature): < 1400 µg/mL
solubility ([3]; organic solvent or mixture, MTBE, room temperature): < 1300 µg/mL
solubility ([3]; organic solvent or mixture, MeOH, room temperature): 12500 to 25000 µg/mL (≈ 28.7 to 57.4 mM)
solubility ([3]; organic solvent or mixture, NMP, room temperature): > 56000 µg/mL
solubility ([3]; organic solvent or mixture, THF, room temperature): 6000 to 9000 µg/mL (≈ 13.8 to 20.7 mM)
solubility ([3]; organic solvent or mixture, Toluene, room temperature): < 900 µg/mL
solubility ([3]; organic solvent or mixture, n-Heptane, room temperature): < 1500 µg/mL
solubility ([3]; water, H2O, room temperature): < 1100 µg/mL

Cc1cc(-c2ccnc(Nc3cnn(C)c3)n2)ccc1CNC(=O)N1CC(OC(C)C)C1 [Compound 1 Type E, 3-isopropoxy-N-(2-methyl-4-(2-((1-methyl-1H-pyrazol-4-yl)amino)pyrimidin-4-yl)benzyl)azetidine-1-carboxamide]
Solid form after storage (XRPD) ([1]; ambient conditions for 2 days): conformed to Type B
